Columns and labels:
Mus musculus = assay: Anticonvulsant activity against DBA/2 mouse at 30 mg/kg, po 2 hrs post dose; format: functional
[1] = target: Voltage-dependent calcium channel alpha2delta subunit (Sus scrofa, UniProt O77773); assay: Displacement of [3H]gabapentin from alpha-2delta calcium channel in pig brain membrane; format: cell membranes
[2] = Inhibition of [3H]leucine uptake at System L in CHO cells; format: cell-based
Rattus norvegicus = assay: Anxiolytic effect in rat at 30 mg/kg, po by Vogel water lick conflict assay assessed by ability to reverse shock-induced suppression of drinking; format: functional

Voltage-dependent calcium channel alpha2delta subunit, sequence (O77773 whole entry): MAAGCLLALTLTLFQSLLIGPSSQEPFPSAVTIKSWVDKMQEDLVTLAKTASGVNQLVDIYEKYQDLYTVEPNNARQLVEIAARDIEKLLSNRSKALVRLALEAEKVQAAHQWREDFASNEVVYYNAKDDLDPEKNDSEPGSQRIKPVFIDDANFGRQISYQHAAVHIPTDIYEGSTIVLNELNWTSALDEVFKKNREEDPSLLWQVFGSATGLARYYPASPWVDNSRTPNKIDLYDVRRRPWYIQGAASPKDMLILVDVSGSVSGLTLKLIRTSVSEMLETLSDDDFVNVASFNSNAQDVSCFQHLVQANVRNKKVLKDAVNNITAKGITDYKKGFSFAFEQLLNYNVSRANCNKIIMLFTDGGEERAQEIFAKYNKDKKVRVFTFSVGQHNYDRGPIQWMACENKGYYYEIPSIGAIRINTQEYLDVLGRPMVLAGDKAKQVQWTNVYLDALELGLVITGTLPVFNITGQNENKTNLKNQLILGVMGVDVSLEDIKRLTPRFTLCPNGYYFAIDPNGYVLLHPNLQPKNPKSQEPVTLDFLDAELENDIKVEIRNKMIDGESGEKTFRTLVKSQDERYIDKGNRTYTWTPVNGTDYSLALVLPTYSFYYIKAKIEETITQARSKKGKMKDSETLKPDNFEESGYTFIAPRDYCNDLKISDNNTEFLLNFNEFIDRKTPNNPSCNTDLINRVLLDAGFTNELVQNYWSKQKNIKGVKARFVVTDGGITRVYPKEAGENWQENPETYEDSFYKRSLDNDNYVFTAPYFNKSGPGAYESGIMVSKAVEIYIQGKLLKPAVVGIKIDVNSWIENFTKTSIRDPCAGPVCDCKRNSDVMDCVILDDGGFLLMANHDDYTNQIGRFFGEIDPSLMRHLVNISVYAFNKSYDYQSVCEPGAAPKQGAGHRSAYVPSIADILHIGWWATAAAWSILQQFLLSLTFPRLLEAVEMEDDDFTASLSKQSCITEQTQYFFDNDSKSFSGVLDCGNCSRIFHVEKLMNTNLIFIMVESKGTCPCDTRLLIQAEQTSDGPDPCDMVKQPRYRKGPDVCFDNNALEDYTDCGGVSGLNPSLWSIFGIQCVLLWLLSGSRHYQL

Row | SMILES | Activity (Mus musculus) [%] | IC50 [1] [µM] | IC50 [2] [µM] | Activity (Rattus norvegicus) [%]
1 | NCC(CC(=O)O)CC1CCOC1 (stereo not given) | 0 | > 10000 |  | 
2 | NCC(CC(=O)O)Cc1ccccc1 (stereo not given) | 0 | > 10000 |  | 
3 | NC[C@H](CC(=O)O)Cc1ccco1 | 40 | 0.178 | 10000 | 
4 | NCC(CC(=O)O)Cc1cccs1 (stereo not given) | 40 | 2.14 | 2940 | 10.3
5 | NC[C@@H](CC(=O)O)Cc1ccco1 | 0 | 1.46 | 10000 | 0.28
6 | NCC(CC(=O)O)Cc1ccoc1 (stereo not given) | 0 | 0.518 | 1420 | -17
7 | NCC(CC(=O)O)Cc1ccsc1 (stereo not given) | 60 | 0.832 | 7030 | -3
8 | NCC(CC(=O)O)Cc1ccco1 (stereo not given) | 20 | 0.421 | 10000 | 5.3
9 | CC(C)C[C@H](CN)CC(=O)O [PREGABALIN] | 100 |  | 284 | 100

Reference: ChEMBL document CHEMBL1146978 (Bioorg Med Chem Lett, 2006)
